The source of these data is patent US20210179940A1, “WIDE TEMPERATURE RANGE AND HIGH PHOTOCHEMICAL STABILITY SMECTIC LIQUID CRYSTAL COMPOSITIONS WITH A MONOLAYER SMECTIC A PHASE (SMA1), METHOD OF OBTAINING THEREOF AND DEVICES UTILIZING THEREOF” (WOJSKOWA AKADEMIA TECHNICZNA, priority 2017, published 2021).

Data set [1] can be described thus: solubility of ionic compounds in fluorobenzene. The procedure:
Fluorobenzene was used as solvent because it is chemically similar to the liquid crystalline composition used here.
The examination was made in the following way: always the same mole amount of a ionic compound (0.00004 mol) was placed in 2 cm^3 of fluorobenzene. The mixture was mixed to dissolve the compound or to obtain equilibrium between the saturated solution and the solid. When a part of the compound was dissolved only, the sample of the saturated solution was taken (0.5 ml). The solvent was evaporated to dryness, the rest was weighted. Knowing the residue amount, the solubility was calculated.

Data set [2] can be described thus: resistivity of fluorobenzene solutions of ionic compounds (bridge method). Type of data set: physicochemical. Particulars: for resistivity 10 kHz / resistivity 50 Hz: solution in C6H5F, 25° C. The procedure: The resistivity of the solution was measured by the bridge method using a Wyne Kerr Precision Component Analyzer 6425 and the measuring cells with electrodes of active area of 12.7 mm×12.7 mm. The electrodes were made of ITO. No orienting layers were deposited. The cell formed with two substrates with electrodes mentioned above was filled with the solution by capillary forces. The gap between electrodes was approx. 14.6 μm.

A short description of data set [3]: conductivity of doped smectic A composition 18 in 15 μm cell. Type of data set: physicochemical. Particulars: prepared in fluorobenzene, 100 Hz, RT. The text has this: The glass cells with a gap of 15 μm filled with the liquid crystal composition were used to measure conductivity and such a parameters of the DS effect as threshold voltage and saturation voltage. […] The orienting layer providing a homeotropic orientation of the molecular director of the smectic composition was obtained using a thin layer of SE1211 (by Nissan Chem.) polyimide, which was deposited on ITO electrodes with a spincoating method, then dried and cured. The testing cells were filled with the liquid crystals composition from the isotropic phase, and they were cooled to the room temperature (RT) and closed.
The components were carefully mixed and then heated to temperature of 90° C. to evaporate the solvent. Then heating was continued under lower pressure (at 0.2 mmHg) for the total removal of the solvent and the composition was carefully mixed by shaking it at the isotropic state. […]

Data set [4] is described as follows: conductivity of doped smectic A composition 21 in 15 μm cell. Type of data set: physicochemical. As to conditions: RT. From the text: The glass cells with a gap of 15 μm filled with the liquid crystal composition were used to measure conductivity and such a parameters of the DS effect as threshold voltage and saturation voltage. Transparent electrodes were formed from indium-tin oxide (ITO) of specific resistivity 100 Ohm/cm^2 and with surface 1.27×1.27 cm^2. The orienting layer providing a homeotropic orientation of the molecular director of the smectic composition was obtained using a thin layer of SE1211 (by Nissan Chem.) polyimide, which was deposited on ITO electrodes with a spincoating method, then dried and cured. The testing cells were filled with the liquid crystals composition from the isotropic phase, and they were cooled to the room temperature (RT) and closed.
In Table 6 the properties of the composition 21 doped with an amidinium salt or potassium complex of a crown ether are compared. The composition 21 has the phase sequence Cr-SmA1-N-Iso and the higher value of dielectric anisotropy than composition 18.

Data set [5] in a line: solubility in organic solvents noted at synthesis. It is filed as physicochemical. As to conditions: solvents named in the value.
[6] abbreviates: composition 18, dopant 8.78 · 10^−3 mol/kg.
Setting [7] is: composition 21, dopant 6.58 · 10^−3 mol/kg, f = 100 Hz.
Where [8] appears, read: composition 18, dopant 6.58 · 10^−3 mol/kg.

Like-named read-outs stand apart in the source and are kept apart here.

Turning to “1-hexadecyl-1,8-diazabicyclo[5,4,0]undec-7-enium 3,5-difluoro-4-cyanophenolate [II.16n]”, the “solubility in C6H5F” value in data set [1] is listed as more than 0.02 mol/dcm^3. In data set [2], the “resistivity 10 kHz” value is on record as 3.8 · 10^5 Ohm · cm and the “resistivity 50 Hz” value is 3.9 · 10^5 Ohm · cm. In data set [2] (solution in fluorobenzene), the “resistivity of I.16b, times higher than that of the compound” value stood at 140 times. In data set [3] (setting [6]), the “conductivity σ” value is 1.8 · 10^−8 Ohm^−1cm^−1.

“1-hexadecyl-1,8-diazabicyclo[5.4.0]undec-7-enium 3,4-difluorophenolate [II.16k]”: in data set [1], the “solubility in C6H5F” value is >0.02 >0.02 >0.02 >0.02 mol/dcm^3.

In the case of “1-hexadecyl-1,8-diazabicyclo[5.4.0]undec-7-enium 4-dodecylbenzenesulphonate [II.16g12]”, the “solubility in C6H5F” value in data set [1] (fluorobenzene, 25° C.) is reported as more than 0.02 mol/dcm^3. For the same molecule, in data set [2], the “resistivity 10 kHz” value is listed as 1.9 · 10^6 Ohm · cm and the “resistivity 50 Hz” value is 2.1 · 10^6 Ohm · cm. Also, in data set [3] (setting [6]), the “conductivity σ” value is 1.1 · 10^−9 Ohm^−1cm^−1. For the same molecule, in data set [4] (setting [7]), the “specific conductivity σ” value was 7.42 · 10^−10 Ohm^−1cm^−1.

On to `CCCCCCCCCCCCCCCC[N+](C)(C)C.[Br-]` [I.16b, hexadecyltrimethylammonium bromide, reference compound], for which, in data set [1], the “solubility compared with the ionic compounds of the disclosure” value is “lower at least ten times” and the “solubility in C6H5F” value is on record as 0.00274 mol/dcm^3. For the same molecule, in data set [2], the “resistivity 10 kHz” value is on record as 5.2 · 10^7 Ohm · cm and the “resistivity 50 Hz” value is on record as 5.0 · 10^7 Ohm · cm.

With `CC[N+]12CCCCCC1=NCCC2.[Br-]` (stereo not shown) [II.2b, 1-ethyl-1,8-diazabicyclo[5.4.0] undec-7-enium bromide], in data set [1] (fluorobenzene, 25° C.), the “solubility in C6H5F” value is reported as 0.0077 mol/dcm^3. Moreover, the “solubility” value in data set [5] was “well soluble in ethanol and ethyl acetate”. Also, in data set [3] (setting [8]), the “conductivity σ” value was 3.0 · 10^−9 Ohm^−1cm^−1.

In the case of `CCCCCCCCCCCCCCCC[N+]1=C2CCCCCN2CCC1` [II.16b, 1-hexadecyl-1,8-diazabicyclo[5.4.0]undec-7-enium bromide], in data set [1], the “solubility in C6H5F” value is >0.02 >0.02 >0.02 >0.02 mol/dcm^3. Further, in data set [5], the “solubility” value was “well soluble in methanol and chloroform”.

As for `CCCCCCCCCCCCCCCC[N+]1=C2CCCCCN2CCC1` [II.16c, 1-Hexadecyl-1,8-diazabicyclo[5.4.0]undec-7-enium chlorate (VII)], in data set [1], the “solubility in C6H5F” value is given as >0.02 >0.02 >0.02 >0.02 mol/dcm^3. In data set [2], the “resistivity 10 kHz” value was 0.84 · 10^6 Ohm · cm and the “resistivity 50 Hz” value is given as 1.0 · 10^6 Ohm · cm. For the same molecule, the “solubility” value in data set [5] is “well soluble in methanol and ethyl acetate”. Moreover, in data set [3] (setting [6]), the “conductivity σ” value is recorded as 4.6 · 10^−10 Ohm^−1cm^−1.

For `CCCCCCCCCCCCCCCC[N+]1=C2CCCCCN2CCC1` [II.16d, 1-hexadecyl-1,8-diazabicyclo[5.4.0]undec-7-enium 1,1,1-trifluoromethanesulphonate], in data set [1], the “solubility in C6H5F” value is given as >0.02 >0.02 >0.02 >0.02 mol/dcm^3.

Consider `C1COCCOCCOCCOCCOCCO1.CCCCCCCCCCCCc1ccc(S(=O)(=O)[O-])cc1.[K+]` [III.g12, complex of 18-crown-6 ether with potassium 4-dodecylbenzenesulphonate], for which the “solubility in C6H5F” value in data set [1] (fluorobenzene, 25° C.) is more than 0.02 mol/dcm^3. Also, the “specific conductivity σ” value in data set [4] (composition 21, 0.1 wt % dopant + 0.3 wt % stabilizer of formula 29, f = 100 Hz) is recorded as 7.0 · 10^−9 Ohm^−1cm^−1.

On to `C1COCCOCCOCCOCCOCCO1.[K+].[O-]c1ccc(F)c(F)c1` [IIIk, complex of 18-crown-6 ether with potassium 3,4-difluorophenolate], for which the “solubility in C6H5F” value in data set [1] (fluorobenzene, 25° C.) is reported as more than 0.02 mol/dcm^3. Besides, the “conductivity σ” value was 2.7 · 10^−9 Ohm^−1cm^−1 in data set [3] (setting [8]) and 2.7·10^−9 Ohm^−1cm^−1 in data set [3] (composition 18, dopant 6.58 · 10^−3 mol/kg, listed as III.k).

In the case of `CCCCCCCCCCCCc1ccc(S(=O)(=O)[O-])cc1.[K+].c1ccc2c(c1)OCCOCCOc1ccccc1OCCOCCO2` [IVg12, Complex of dibenzo-18-crown-6 ether with potassium 4-dodecylbenzenesulphonate], in data set [1] (fluorobenzene, 25° C.), the “solubility in C6H5F” value is more than 0.02 mol/dcm^3. Further, in data set [2], the “resistivity 10 kHz” value is recorded as 4.5 · 10^5 Ohm · cm and the “resistivity 50 Hz” value is listed as 6.0 · 10^5 Ohm · cm. In addition, the “conductivity σ” value in data set [3] (setting [6]) is on record as 2.7 · 10^−10 Ohm^−1cm^−1. Further, in data set [4] (setting [7]), the “specific conductivity σ” value was 4.68 · 10^−10 Ohm^−1cm^−1.

As for `CCCCCCCCc1ccc([O-])cc1.[K+].c1ccc2c(c1)OCCOCCOc1ccccc1OCCOCCO2` [IVh8, complex of dibenzo-18-crown-6 ether with potassium 4-octylphenolate], the “solubility in C6H5F” value in data set [1] (fluorobenzene, 25° C.) is 0.0107 mol/dcm^3. Also, the “conductivity σ” value in data set [3] (setting [6]) is 1.4 · 10^−10 Ohm^−1cm^−1.

As to `[K+].[O-]c1ccc(F)c(F)c1.c1ccc2c(c1)OCCOCCOc1ccccc1OCCOCCO2` [IVk, complex of dibenzo-18-crown-6 ether with potassium 3,4-difluorophenolate], the “solubility in C6H5F” value in data set [1] (fluorobenzene, 25° C.) is reported as more than 0.02 mol/dcm^3. In addition, in data set [2], the “resistivity 10 kHz” value is reported as 0.95 · 10^6 Ohm · cm and the “resistivity 50 Hz” value is given as 1.1 · 10^6 Ohm · cm. The “conductivity σ” value in data set [3] (setting [6]) is 4.1 · 10^−9 Ohm^−1cm^−1.

For `N#Cc1c(F)cc([O-])cc1F.[K+].c1ccc2c(c1)OCCOCCOc1ccccc1OCCOCCO2` [IVn, complex of dibenzo-18-crown-6 ether with potassium 3,5-difluoro-4-cyanophenolate], the “solubility in C6H5F” value in data set [1] (fluorobenzene, 25° C.) is reported as more than 0.02 mol/dcm^3. Moreover, in data set [2], the “resistivity 10 kHz” value was 4.6 · 10^5 Ohm · cm and the “resistivity 50 Hz” value is 4.2 · 10^5 Ohm · cm. Further, in data set [3] (composition 18, dopant 2.19 · 10^−3 mol/kg), the “conductivity σ” value is reported as 2.19 · 10^−9 Ohm^−1cm^−1. In addition, in data set [3] (setting [6]), the “conductivity σ” value was 8.1 · 10^−9 Ohm^−1cm^−1.

Turning to “complex of 18-crown-6 ether with potassium bromide [IIIb]”, the “conductivity σ” value in data set [3] (setting [8]) is 1.1 · 10^−9 Ohm^−1cm^−1.

For the molecule “complex of 18-crown-6 ether with sodium dodecyl-1-sulphonate [V.e12]”, in data set [3] (setting [8]), the “conductivity σ” value was 3.7 · 10^−10 Ohm^−1cm^−1.

In the case of “complex of dibenzo-18-crown-6 ether with potassium bromide [IVb]”, the “conductivity σ” value in data set [3] (setting [8]) is 2.2 · 10^−10 Ohm^−1cm^−1.

In the case of “complex of dibenzo-18-crown-6 ether with potassium chlorate (VII) [IVc]”, the “solubility in C6H5F” value in data set [1] (fluorobenzene, 25° C.) is less than 0.002 mol/dcm^3. For the same molecule, in data set [2], the “resistivity 10 kHz” value is 2.9 · 10^7 Ohm · cm and the “resistivity 50 Hz” value was 4.2 · 10^7 Ohm · cm. Moreover, the resistivity in data set [2] (solution in fluorobenzene, frequency not stated) was 4.2·10^7 Ohm·cm. Besides, the “conductivity σ” value in data set [3] (setting [6]) was 1.5 · 10^−10 Ohm^−1cm^−1.
